The source made the active and inactive calls. No cut-off for these calls is given here.
Columns and labels:
MV4-11 [1] = assay: Induction of cell cycle arrest in human MV4-11 cells assessed as reduction in CDK4 expression at 0.16 to 100 nM by Western blot analysis; format: functional, cell-based
MV4-11 [2] = assay: Induction of cell cycle arrest in human MV4-11 cells assessed as S phase at 4 nM incubated for 48 hrs by propidium iodide staining based flow cytometry analysis (reference value: 20.14 %); format: functional
[3] = AUC in Sprague-Dawley rat at 25 mg/kg, po; format: ADME, organism-based; details: in vivo
[4] = Cmax in Sprague-Dawley rat at 25 mg/kg, po; format: ADME, organism-based; design: dose 25 mg/kg, route oral; details: in vivo
[5] = target: Macrophage colony-stimulating factor 1 receptor (Homo sapiens, UniProt P07333); assay: Binding affinity to recombinant human CSF1R (564 to 939 residues) expressed in bacterial expression system by Kinomescan method
[6] = Oral bioavailability in Sprague-Dawley rat at 25 mg/kg; format: ADME, organism-based; details: in vivo
MV4-11 [7] = assay: Induction of apoptosis in human MV4-11 cells assessed as viable cells at 4 nM incubated for 48 hrs by annexin V and 7-AAD staining based flow cytometry analysis (reference value: 90.47 %); format: functional; details: MV4-11, 48 h, read-out: Activity
MV4-11 [8] = assay: Induction of apoptosis in human MV4-11 cells assessed as viable cells at 100 nM incubated for 48 hrs by annexin V and 7-AAD staining based flow cytometry analysis (reference value: 90.47 %); format: functional; details: MV4-11, 48 h, read-out: Activity
MV4-11 [9] = assay: Induction of apoptosis in human MV4-11 cells assessed as early apoptotic cells at 20 nM incubated for 48 hrs by annexin V and 7-AAD staining based flow cytometry analysis (reference value: 6.36 %); format: functional
[10] = target: T1, Receptor-type tyrosine-protein kinase FLT3 (Homo sapiens, UniProt P36888)
T1 sequence (P36888 whole entry): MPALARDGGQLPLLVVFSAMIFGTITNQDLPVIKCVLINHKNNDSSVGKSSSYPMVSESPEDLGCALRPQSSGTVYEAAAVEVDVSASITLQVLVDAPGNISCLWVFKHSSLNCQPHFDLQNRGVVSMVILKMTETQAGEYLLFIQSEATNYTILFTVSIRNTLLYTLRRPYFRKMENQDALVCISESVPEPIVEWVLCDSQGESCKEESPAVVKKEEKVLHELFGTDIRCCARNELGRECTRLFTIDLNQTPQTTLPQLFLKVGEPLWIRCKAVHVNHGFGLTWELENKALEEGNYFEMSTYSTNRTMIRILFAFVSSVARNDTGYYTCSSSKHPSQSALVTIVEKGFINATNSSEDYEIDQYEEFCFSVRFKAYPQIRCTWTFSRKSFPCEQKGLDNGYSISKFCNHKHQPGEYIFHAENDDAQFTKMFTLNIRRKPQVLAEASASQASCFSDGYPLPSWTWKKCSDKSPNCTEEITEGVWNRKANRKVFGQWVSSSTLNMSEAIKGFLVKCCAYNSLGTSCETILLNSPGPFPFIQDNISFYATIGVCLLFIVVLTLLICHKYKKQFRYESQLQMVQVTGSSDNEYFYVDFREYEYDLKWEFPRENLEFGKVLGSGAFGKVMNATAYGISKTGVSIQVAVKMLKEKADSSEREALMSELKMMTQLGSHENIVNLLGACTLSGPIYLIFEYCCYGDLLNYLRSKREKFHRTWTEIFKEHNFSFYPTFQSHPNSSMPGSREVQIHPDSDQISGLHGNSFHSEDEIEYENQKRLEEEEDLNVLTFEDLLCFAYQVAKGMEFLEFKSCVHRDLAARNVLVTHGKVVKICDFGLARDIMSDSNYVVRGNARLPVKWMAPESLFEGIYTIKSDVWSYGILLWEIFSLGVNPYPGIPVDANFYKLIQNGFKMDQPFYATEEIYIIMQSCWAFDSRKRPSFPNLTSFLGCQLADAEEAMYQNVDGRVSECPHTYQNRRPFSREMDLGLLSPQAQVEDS
Description: Binding affinity to recombinant human FLT3 (592 to 969 residues) expressed in bacterial expression system by Kinomescan method

MV4-11 [11] = assay: Induction of cell cycle arrest in human MV4-11 cells assessed as G2/M phase at 4 nM incubated for 48 hrs by propidium iodide staining based flow cytometry analysis (reference value: 24.88 %); format: functional
[12] = Tmax in Sprague-Dawley rat at 25 mg/kg, po; format: ADME, organism-based; details: in vivo
[13] = system: Receptor-type tyrosine-protein kinase FLT3 (Homo sapiens), P36888 [UNDEFINED MUTATION]; assay: Inhibition of FLT3 ITD mutant expressed in human MV4-11 cells assessed as reduction in FLT3 phosphorylation at 0.8 to 500 nM incubated for 6 hrs by Western blot analysis; format: cell-based
[14] = target: Receptor-type tyrosine-protein kinase FLT3 (Homo sapiens, UniProt P36888, F691L/ITD)
Description: Binding affinity to recombinant human FLT3 ITD/F691L double mutant expressed in bacterial expression system by Kinomescan method

MV4-11 [15] = assay: Induction of apoptosis in human MV4-11 cells assessed as late apoptotic cells at 20 nM incubated for 48 hrs by annexin V and 7-AAD staining based flow cytometry analysis (reference value: 2.25 %); format: functional
MV4-11 [16] = assay: Induction of cell cycle arrest in human MV4-11 cells assessed as reduction in Cyclin E expression at 0.16 to 100 nM by Western blot analysis; format: functional, cell-based
[17] = Half life in Sprague-Dawley rat at 25 mg/kg, po; format: ADME, organism-based; details: in vivo
MV4-11 [18] = assay: Induction of cell cycle arrest in human MV4-11 cells assessed as reduction in Cyclin D2 expression at 0.16 to 100 nM by Western blot analysis; format: functional, cell-based
MV4-11 [19] = assay: Induction of cell cycle arrest in human MV4-11 cells assessed as G0/G1 phase at 20 nM incubated for 48 hrs by propidium iodide staining based flow cytometry analysis (reference value: 54.82 %); format: functional

Sequence of Macrophage colony-stimulating factor 1 receptor (P07333 whole entry, the tested form may be a part): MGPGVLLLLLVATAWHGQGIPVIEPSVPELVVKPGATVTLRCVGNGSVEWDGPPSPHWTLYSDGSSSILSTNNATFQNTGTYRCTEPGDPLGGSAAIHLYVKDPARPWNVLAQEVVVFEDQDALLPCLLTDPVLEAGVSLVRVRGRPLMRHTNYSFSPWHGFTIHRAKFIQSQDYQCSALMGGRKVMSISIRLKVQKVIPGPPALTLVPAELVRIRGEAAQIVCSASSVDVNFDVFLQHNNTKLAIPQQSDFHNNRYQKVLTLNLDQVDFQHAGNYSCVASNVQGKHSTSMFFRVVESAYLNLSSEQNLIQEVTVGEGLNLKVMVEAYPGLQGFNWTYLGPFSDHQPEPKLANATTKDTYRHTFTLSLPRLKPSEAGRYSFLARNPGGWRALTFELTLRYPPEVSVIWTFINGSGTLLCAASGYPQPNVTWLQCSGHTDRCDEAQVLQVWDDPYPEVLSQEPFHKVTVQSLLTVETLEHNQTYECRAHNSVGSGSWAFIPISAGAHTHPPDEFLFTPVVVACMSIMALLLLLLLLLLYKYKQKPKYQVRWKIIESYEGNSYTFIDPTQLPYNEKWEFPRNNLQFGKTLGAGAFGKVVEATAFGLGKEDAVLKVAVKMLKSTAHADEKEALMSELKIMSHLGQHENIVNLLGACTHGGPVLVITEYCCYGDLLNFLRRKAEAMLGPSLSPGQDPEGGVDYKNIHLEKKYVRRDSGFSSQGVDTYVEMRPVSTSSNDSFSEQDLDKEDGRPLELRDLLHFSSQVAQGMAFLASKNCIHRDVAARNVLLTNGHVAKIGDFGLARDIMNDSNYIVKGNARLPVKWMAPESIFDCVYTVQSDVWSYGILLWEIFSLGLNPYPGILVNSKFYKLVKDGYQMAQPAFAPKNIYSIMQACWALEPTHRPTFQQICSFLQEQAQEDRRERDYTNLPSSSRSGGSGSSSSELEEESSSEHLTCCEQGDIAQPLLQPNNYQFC

CC(C)(C)c1cc(NC(=O)Nc2ccc(-c3cn(-c4ccc(OCCN5CCOCC5)cc4Cl)nn3)cc2)no1
Activity (MV4-11 [1]): Active | Activity (MV4-11 [2]): 15.39% | AUC [3]: 41300 ng·h/mL | Cmax [4]: 3220 ng/mL | Kd [5]: 100 nM | bioavailability [6]: 35.8% | viability at 0.004 µM (MV4-11 [7]): 88.7% | viability at 0.1 µM (MV4-11 [8]): 71.6% | Activity (MV4-11 [9]): 10.62% | Kd [10]: 3.5 nM | Activity (MV4-11 [11]): 18.42% | Tmax [12]: 4 h | inhibition [13]: Active | Kd [14]: 2400 nM | Activity (MV4-11 [15]): 4.31% | Activity (MV4-11 [16]): Active | half-life [17]: 6.77 h | Activity (MV4-11 [18]): Active | Activity (MV4-11 [19]): 87.8%

Reference: ChEMBL document CHEMBL4619814, “Identification and Development of 1,4-Diaryl-1,2,3-triazolo-Based Ureas as Novel FLT3 Inhibitors” (ACS Med Chem Lett, 2020)
